# Assay results: patent US9029381B2, “Cyclopropyl amide derivatives” (Astrazeneca AB, priority 2007, dated 2015)
# Target: human histamine H3 receptors (Homo sapiens (Human), UniProt Q9Y5N1)
# Experiment: Histamine H3 SPA with the agonist radioligand [3H]-N-α-methylhistamine (hH3 binding)
# Details: inhibition of [3H]-N-α-methylhistamine (1.4 nM) binding to CHO-K1 membranes expressing full-length human H3 (isoform 445)
# Method: Histamine H3 SPA with the Agonist Radioligand [^3H]-N-α-Methylhistamine
# The H3 binding assay was/can be used to evaluate the ability of at least one compound in accordance with formula I, Ia, Ib, and/or Ic to inhibit [^3H]-N-α-methylhistamine binding to CHO-K1 membranes expressing human histamine H3 receptors (full-length H3, the most prevalent brain isoform 445). In 200 μl 96-well SPA format, human H3 membranes (12.5 μg protein/well) and 1.4 nM [^3H]-N-α-methylhistamine were/can be incubated with at least one compound in accordance with formula I, Ia, Ib, and/or Ic for 1.5 hrs to determine percent effect with respect to total (1% DMSO) and non-specific binding (10 μM imetit). […] Single poke (SP) testing can be done in triplicate.
# Membranes, prepared from CHO-K1 cells stably expressing the human histamine H3 receptor, can be obtained from ACS.
# Tested formula I, Ia, Ib, and/or Ic compounds were/can be provided as solubilized samples in neat DMSO. Serial dilutions were/can be performed in DMSO.
# Plates were/can be 96-well Unifilter GF/B (Perkin Elmer, 6005177). Plates were/can be read on a Perkin Elmer TopCount. CPM data was/can be used to analyze unless DPM data generated by a quench curve was/is required.
# • 1. 1 mg/ml BSA was/can be added to assay buffer (AB) on day of assay. • 2. Amounts required for bead/membrane pool in AB were/can be calculated: “P”−need 17.1 ml/assay plate+10 ml PlateMate excess. Buffer volume was/can be split between beads and membranes to allow for polytroning of membranes prior to addition to beads. • a. […] A minimum of 15 minutes was/can be waited prior to adding membranes (See b. below). • b. Membranes (hH3 membranes from CHO cells containing recombinant human H3 receptors, 11.7 mg/ml): membranes were/can be removed from −80° C. and thawed in RT waterbath. (0.0702 mg/ml×P) mg of membranes were/can be resuspended in the remaining volume not used with beads above for 12.5 μg/well final and homogenized briefly at polytron speed 5.0. The homogenized membrane mixture was/can be combined with the beads and a minimum of 30 minutes was/can be waited prior to dispensing to plate. • 3. Formula I, Ia, Ib, and/or Ic compounds: For Single Poke, 2 μl mM of a compound in accordance with formula I, Ia, Ib, and/or Ic was/can be dispensed to Optiplates (triplicate plates) for final a concentration of 10 μM. […] Imetit (see below) was/can be used as a control. • 4. […] [^3H]-N-α-methylhistamine ([^3H]-NAMH): A solution in AB at 14 nM, 10× final concentration of 1.4 nM was/can be prepared. 5 μl samples were/can be calculated in quadruplicate on the 13 counter. If concentration was/is 12-14.5 nM, no adjustment was/is may be required. (For IC50s, use final concentration on calculation tab of ABase template.) Assay • 1. […] 2 μl of the formula I, Ia, Ib, and/or Ic compound dilution was/can be mixed and then transferred into assay plates. DMSO was/can be removed and 2 μl of 100 μM Imetit was/can be added to the wells. • 3. 178 μl bead/membrane mixture was/can be dispensed into the assay plate. • 4. 20 μl [^3H]-NAMH was/can be added with Rapid Plate. The assay plate was/can be sealed and incubated for 1.5 hr on RT shaker at speed ˜6.5. • 5. The assay plate was/can be subsequently centrifuged at 1000 rpm for 10 minutes. • 6. The count was/can be performed on TopCount using one of the 3H SPA H3 Quench programs.
# The DPM data was/can be analyzed when tSIS was/is less than that associated with 70% of full scale on the quench curve (tSIS<25%). Otherwise, CPM data was/is used.
# (§1) The IC50 and nH can be determined by fitting the data to model 205 in XLfit: y=A+((B−A)/(1+((C/x)^D)). Guanosine 5′-O-(3-[^35S]thio)triphosphate [GTPγS] Binding Assay
# human histamine H3 receptors, sequence (Q9Y5N1 whole entry): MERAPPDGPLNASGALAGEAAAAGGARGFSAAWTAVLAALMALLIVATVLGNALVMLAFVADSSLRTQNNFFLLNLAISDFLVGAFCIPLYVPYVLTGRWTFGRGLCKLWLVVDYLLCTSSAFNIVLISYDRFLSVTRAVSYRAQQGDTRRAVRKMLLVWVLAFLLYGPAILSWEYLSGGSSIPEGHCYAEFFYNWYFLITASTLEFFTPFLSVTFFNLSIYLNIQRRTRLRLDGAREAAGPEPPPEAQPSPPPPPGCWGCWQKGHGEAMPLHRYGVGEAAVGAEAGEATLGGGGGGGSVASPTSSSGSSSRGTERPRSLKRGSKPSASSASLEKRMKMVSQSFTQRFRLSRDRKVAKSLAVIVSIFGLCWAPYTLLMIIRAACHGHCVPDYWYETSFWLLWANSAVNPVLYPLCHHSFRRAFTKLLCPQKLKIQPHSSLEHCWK
row,Structure (SMILES),IC50
1,"O=C([C@H]1C[C@@H]1c1ccccc1)N1CCN(C2CCCCC2)CC1 (relative stereo) [Example 2, trans-(4-Cyclohexylpiperazin-1-yl)-(2-phenyl-cyclopropyl)methanone]",105 nM
2,"O=C([C@H]1C[C@@H]1c1ccccc1)N1CCN(C2CCCCCC2)CC1 (relative stereo) [Example 3, trans-(4-Cycloheptylpiperazin-1-yl)-(2-phenylcyclopropyl)methanone]",4160 nM
3,"O=C([C@H]1C[C@@H]1c1ccccc1)N1CCN(C2CC2)CC1 (relative stereo) [Example 5, trans-(4-Cyclopropylpiperazin-1-yl)-(2-phenylcyclopropyl)methanone]",44.7 nM
4,"O=C([C@H]1C[C@@H]1c1ccccc1)N1CCN(C2CCCC2)CC1 (relative stereo) [Example 6, trans-(4-Cyclopentylpiperazin-1-yl)-(2-phenylcyclopropyl)methanone]",14 nM
5,"O=C([C@H]1C[C@@H]1c1ccccc1)N1CCCN(C2CCC2)CC1 (relative stereo) [Example 8, trans-(4-Cyclobutyl-1,4-diazepan-1-yl)-(2-phenylcyclopropyl)methanone]",7.56 nM
6,"CC(C)(C)N1CCN(C(=O)[C@H]2C[C@@H]2c2ccccc2)CC1 (relative stereo) [Example 9, trans-(4-tert-Butylpiperazin-1-yl)-(2-phenylcyclopropyl)methanone]",45.3 nM
7,"CN1CCN(c2ccc([C@H]3C[C@@H]3C(=O)N3CCN(C4CCC4)CC3)cc2)C1=O (relative stereo) [Example 16, trans-1-{4-[2-(4-Cyclobutylpiperazine-1-carbonyl)cyclopropyl]phenyl}-3-methylimidazolidin-2-one]",441 nM
8,"CS(=O)(=O)Nc1ccc([C@H]2C[C@@H]2C(=O)N2CCN(C3CCC3)CC2)cc1 (relative stereo) [Example 18, trans-N-{4-[2-(4-Cyclobutylpiperazine-1-carbonyl)cyclopropyl]phenyl}methane-sulfonamide]",62.5 nM
9,"O=C([C@H]1C[C@@H]1c1ccc(N2CCCC2)cc1)N1CCN(C2CCC2)CC1 (relative stereo) [Example 19, trans-(4-cyclobutylpiperazin-1-yl) {-2-[4-(pyrrolidin-1-yl)phenyl]cyclopropyl}methanone]",351 nM
10,"O=C([C@H]1C[C@@H]1c1ccc(C(F)(F)F)nc1)N1CCN(C2CCC2)CC1 (relative stereo) [Example 26, trans-(4-Cyclobutylpiperazin-1-yl)(2-(6-(trifluoromethyl)pyridin-3-yl)cyclopropyl)methanone]",88.3 nM
11,"O=C([C@@H]1C[C@H]1c1ccc(F)cc1)N1CCN(C2CCC2)CC1 (relative stereo) [Example 27, trans-(4-Cyclobutylpiperazin-1-yl)-[2-(4-fluorophenyl)cyclopropyl]methanone]",7.3 nM

# Results, then the compound that gave them:
row,IC50,Structure (SMILES)
1,6.4 nM,"O=C([C@H]1C[C@@H]1c1ccccc1)N1CCN(C2CCC2)CC1 (relative stereo) [Example 4, trans-(4-Cyclobutylpiperazin-1-yl)-(2-phenylcyclopropyl)methanone]"
2,13.3 nM,"O=C([C@H]1C[C@@H]1c1ccc(Br)cc1)N1CCN(C2CCC2)CC1 (relative stereo) [Example 13, trans-[2-(4-Bromophenyl)cyclopropyl]-(4-cyclobutylpiperazin-1-yl)methanone]"
3,1.37 nM,"O=C([C@@H]1C[C@H]1c1cccc(Br)c1)N1CCN(C2CCC2)CC1 (relative stereo) [Example 28, trans-[2-(3-Bromophenyl)cyclopropyl]-(4-cyclobutylpiperazin-1-yl)methanone]"
4,0.834 nM,"N#Cc1cccc([C@@H]2C[C@H]2C(=O)N2CCN(C3CCC3)CC2)c1 (relative stereo) [Example 29, trans-3-[2-(4-cyclobutylpiperazine-1-carbonyl)cyclopropyl]benzonitrile]"

# Target: human Histamine H3 receptor (hH3R) (Homo sapiens (Human), UniProt Q9Y5N1)
# Sequence (Q9Y5N1 whole entry): as above
# Experiment: Guanosine 5'-O-(3-[35S]thio)triphosphate [GTPγS] binding assay
# Format: biochemical
# Details: antagonist mode vs (R)-α-methyl histamine 30 nM; membranes from CHO cells expressing hH3R
# Method: as §1
# A GTPγS binding assay can be used to investigate antagonist properties of compounds in CHO cells (Chinese Hamster Ovary) transfected with human Histamine H3 receptor (hH3R). Membranes from CHO cells expressing hH3R (10 μg/well) are diluted in GTPγS assay buffer (20 mM Hepes, 10 mM MgCl2, 100 mM NaCl, pH 7.4) and preincubated with saponine (3 μg/ml), GDP (10 μM) and PVT-WGA SPA beads (125 μg/well) (Amersham) for 30 minutes. To determine antagonist activity, (R)-α-methyl histamine (30 nM) is added in 96 well SPA plate with [^35S]GTPγS (0.2 nM) and various concentration of H3R antagonists. The GTPγS binding assay is started with addition of the mixture membrane/saponine/GDP and incubated for 90 minutes at room temperature. The amount of bound [^35S]GTPγS is determined by using the MicroBeta Trilux counter (PerkinElmer). The percentage of [^35S]GTPγS bound in each sample is calculated as a percentage of that bound control sample incubated in absence of H3 antagonist. Duplicate determinations are obtained for each concentration, and the data are analyzed using ExcelFit4 to obtain the IC50.
row,Structure (SMILES),IC50
1,"O=C([C@@H]1C[C@H]1c1cccc(N2CCCC2=O)c1)N1CCN(C2CCC2)CC1 (single isomer, unassigned; enantiomer 1) [Example 38, 1-(3-((trans)-2-(4-cyclobutylpiperazine-1-carbonyl)cyclopropyl)phenyl)pyrrolidin-2-one, enantiomer 1]",11.6 nM
2,"O=C([C@@H]1C[C@H]1c1cccc(N2CCCCC2=O)c1)N1CCN(C2CCC2)CC1 (single isomer, unassigned; enantiomer 1) [Example 40, 1-(3-((trans)-2-(4-cyclobutylpiperazine-1-carbonyl)cyclopropyl)phenyl)piperidin-2-one, enantiomer 1]",18.2 nM
3,"NC(=O)c1ccc([C@@H]2C[C@H]2C(=O)N2CCN(C3CCC3)CC2)cc1 (single isomer, unassigned; enantiomer 1) [Example 43, 4-((trans)-2-(4-cyclobutylpiperazine-1-carbonyl)cyclopropyl)benzamide, enantiomer 1]",3.81 nM
4,"O=C([C@@H]1C[C@H]1c1cccc(N2CCCC2=O)c1)N1CCN(C2CCC2)CC1 (single isomer, unassigned; enantiomer 2) [Example 39, 1-(3-((trans)-2-(4-cyclobutylpiperazine-1-carbonyl)cyclopropyl)phenyl)pyrrolidin-2-one, enantiomer 2]",> 1800 nM
5,"O=C([C@@H]1C[C@H]1c1cccc(N2CCCCC2=O)c1)N1CCN(C2CCC2)CC1 (single isomer, unassigned; enantiomer 2) [Example 41, 1-(3-((trans)-2-(4-cyclobutylpiperazine-1-carbonyl)cyclopropyl)phenyl)piperidin-2-one, enantiomer 2]",733 nM

# The remaining lines, values ahead:
row,IC50,Structure (SMILES)
1,8.59 nM,"CS(=O)(=O)Nc1cccc([C@@H]2C[C@H]2C(=O)N2CCN(C3CCC3)CC2)c1 (relative stereo) [Example 30, trans-N-{3-[2-(4-Cyclobutylpiperazine-1-carbonyl)cyclopropyl]phenyl}methanesulfonamide]"
2,6.19 nM,"NC(=O)c1cccc([C@@H]2C[C@H]2C(=O)N2CCN(C3CCC3)CC2)c1 (single isomer, unassigned; enantiomer 1) [Example 36, 3-((trans)-2-(4-cyclobutylpiperazine-1-carbonyl)cyclopropyl)benzamide, enantiomer 1]"
3,> 1050 nM,"NC(=O)c1cccc([C@@H]2C[C@H]2C(=O)N2CCN(C3CCC3)CC2)c1 (single isomer, unassigned; enantiomer 2) [Example 37, 3-((trans)-2-(4-cyclobutylpiperazine-1-Carbonyl)cyclopropyl)benzamide, enantiomer 2]"
